One assay deals with PKR R510Q (Homo sapiens, UniProt P30613, R510Q). Nature of the assay: PKR Mutant Assay, AC50 against PKR R510Q. The class given is biochemical. The following applies: mutant PKR R510Q enzyme. In short, it runs like this: (§1)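 LDH-coupled NADH depletion read as A340 change at room temperature after ADP (0.22-1.65 mM) start. Compounds, tested from 100 μM final in 3-fold steps over 11 points with 1% DMSO, sat 60 min with enzyme (80-400 ng/well), PEP 0.1-0.5 mM and NADH 180 uM in Tris pH 7.5/KCl/MgCl2/DTT/BSA buffer.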
Sequence of PKR R510Q (P30613 whole entry R510Q): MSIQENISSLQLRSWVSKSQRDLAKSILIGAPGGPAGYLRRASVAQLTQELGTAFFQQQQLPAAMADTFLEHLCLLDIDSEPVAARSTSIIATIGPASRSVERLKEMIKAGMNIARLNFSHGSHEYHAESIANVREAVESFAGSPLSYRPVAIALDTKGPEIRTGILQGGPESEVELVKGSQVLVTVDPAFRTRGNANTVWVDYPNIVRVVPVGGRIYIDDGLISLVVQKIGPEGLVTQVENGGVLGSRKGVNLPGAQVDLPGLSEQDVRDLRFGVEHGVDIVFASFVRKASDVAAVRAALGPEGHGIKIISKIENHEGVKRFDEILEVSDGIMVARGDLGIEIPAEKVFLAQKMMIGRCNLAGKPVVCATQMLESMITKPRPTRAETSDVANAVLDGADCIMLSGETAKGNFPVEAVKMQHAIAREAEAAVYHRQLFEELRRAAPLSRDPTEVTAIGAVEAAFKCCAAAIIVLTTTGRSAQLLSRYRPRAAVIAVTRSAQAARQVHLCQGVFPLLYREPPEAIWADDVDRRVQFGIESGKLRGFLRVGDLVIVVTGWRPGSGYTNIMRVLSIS

Assay [1] concerns the target T1, PKR WT (Homo sapiens, UniProt P30613). Nature of the assay: PKR WT cell based AC50 assay. To be noted: wild type PKR.
In assay [2] the target is T1, PKR WT. Nature of the assay: PKR WT enzymatic AC50 assay. The class given is biochemical. The following applies: wild type PKR. The essentials: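 PK-LDH coupled assay, RT. Enzyme + cpd + PEP/NADH/LDH, 60 min pre-incubation, no ADP. ADP 0.22-1.65 mM to initiate; A340 kinetic read. Cpd 11 pts, 3-fold, 100 μM top.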
Another assay addresses PKR R532W (Homo sapiens, UniProt P30613, R532W). Nature of the assay: PKR Mutant Assay, AC50 against PKR R532W. To be noted: mutant PKR R532W enzyme. The class given is biochemical. The essentials:
as §1

Bounds are passed on as bounds.

T1 sequence (P30613 whole entry): as the sequence (P30613 whole entry R510Q) above, with Q510R counted along it
Sequence of PKR R532W (P30613 whole entry R532W): as the sequence (P30613 whole entry R510Q) above, with Q510R, R532W counted along it

One may read the AC50 as the concentration giving half of the maximal activity seen. Take `O=C(c1ccc(NS(=O)(=O)c2cccc3ccccc23)cc1)N1CCC(O)(c2ccccc2Cl)CC1` [Compound 197, N-(4-(4-(2-chlorophenyl)-4-hydroxypiperidine-1-carbonyl)phenyl)naphthalene-1-sulfonamide]: the AC50 on PKR R510Q is 101 to 1000 nM; at PKR WT [1] it was 101 to 1000 nM; on PKR WT [2], less than 100 nM; on PKR R532W it was less than 100 nM.

`CC(C)(C)CC1(O)CCN(C(=O)c2ccc(NS(=O)(=O)c3cccc4cccnc34)cc2)CC1` [Compound 117, N-(4-(4-hydroxy-4-neopentylpiperidine-1-carbonyl)phenyl)quinoline-8-sulfonamide]: the AC50 at PKR R510Q, at PKR WT [1], at PKR WT [2] and at PKR R532W was less than 100 nM throughout.

With `O=C(c1ccc(NS(=O)(=O)c2cccc3cccnc23)cc1)N1CCC(O)(Cc2ccccc2)CC1` [Compound 131, N-(4-(4-benzyl-4-hydroxypiperidine-1-carbonyl)phenyl)quinoline-8-sulfonamide], the AC50 at PKR R510Q, on PKR WT [1], on PKR WT [2] and on PKR R532W was less than 100 nM in each case.

Regarding `O=C(c1ccc(NS(=O)(=O)c2cccc3cccnc23)cc1)N1CCC(O)(c2cccnc2C(F)(F)F)CC1` [Compound 159, N-(4-(4-hydroxy-4-(2-(trifluoromethyl)pyridin-3-yl)piperidine-1-carbonyl)phenyl)quinoline-8-sulfonamide], the AC50 at PKR R510Q is 101 to 1000 nM; on PKR WT [1], less than 100 nM; on PKR WT [2], less than 100 nM; on PKR R532W, less than 100 nM.

As for `Cc1ccccc1CC1(O)CCN(C(=O)c2ccc(NS(=O)(=O)c3cccc4cccnc34)cc2)CC1` [Compound 108, N-(4-(4-hydroxy-4-(2-methylbenzyl)piperidine-1-carbonyl)phenyl)quinoline-8-sulfonamide], the AC50 on PKR R510Q, at PKR WT [1], on PKR WT [2] and at PKR R532W was less than 100 nM throughout.

For `Cc1cc(C(=O)N2CCC(O)(c3ccccc3Cl)CC2)ccc1NS(=O)(=O)c1cccc2nccnc12` [Compound 119, N-(4-(4-(2-chlorophenyl)-4-hydroxypiperidine-1-carbonyl)-2-methylphenyl)quinoxaline-5-sulfonamide], the AC50 on PKR R510Q, on PKR WT [1], at PKR WT [2] and at PKR R532W was less than 100 nM each time.

As for `O=C(c1ccc(NS(=O)(=O)c2cccc3c2OCCC3)cc1)N1CCC(O)(c2ccccc2Cl)CC1` [Compound 102, N-(4-(4-(2-chlorophenyl)-4-hydroxypiperidine-1-carbonyl)phenyl)chroman-8-sulfonamide], the AC50 at PKR R510Q, at PKR WT [1], at PKR WT [2] and at PKR R532W was less than 100 nM each time.

With `Cc1ccccc1C1(O)CCN(C(=O)c2ccc(NS(=O)(=O)c3cccc4cccnc34)cc2)CC1` [Compound 103, N-(4-(4-hydroxy-4-(o-tolyl)piperidine-1-carbonyl)phenyl)quinoline-8-sulfonamide], the AC50 at PKR R510Q, on PKR WT [1], at PKR WT [2] and on PKR R532W was less than 100 nM in each case.

For `O=C(c1ccc(NS(=O)(=O)c2cccc3scnc23)cc1)N1CCC(O)(CC2CC2(F)F)CC1` (centres unmarked) [Compound 432], the AC50 was 101 to 1000 nM on PKR R510Q, 101 to 1000 nM at PKR WT [1], less than 100 nM at PKR WT [2] and less than 100 nM on PKR R532W.

As for `CC(C)CC1(O)CCN(C(=O)c2ccc(NS(=O)(=O)c3ccc(F)c4cccnc34)cc2)CC1` [Compound 203, 5-fluoro-N-(4-(4-hydroxy-4-isobutylpiperidine-1-carbonyl)phenyl)quinoline-8-sulfonamide], the AC50 is 101 to 1000 nM at PKR R510Q, less than 100 nM at PKR WT [1], less than 100 nM on PKR WT [2] and less than 100 nM on PKR R532W.

In the case of `O=C(c1ccc(NS(=O)(=O)c2cccc3cccnc23)cc1)N1CCC(O)(c2cc(F)ccc2Cl)CC1` [Compound 166], the AC50 on PKR R510Q was 101 to 1000 nM; at PKR WT [1] it was less than 100 nM; on PKR WT [2], less than 100 nM; on PKR R532W, less than 100 nM.

As to `O=C(c1ccc(NS(=O)(=O)c2cccc3scnc23)cc1)N1CCC(O)(/C=C/CC(F)(F)F)CC1` [Compound 404, (E)-N-(4-(4-hydroxy-4-(4,4,4-trifluorobut-1-enyl)piperidine-1-carbonyl)phenyl)benzo[d]thiazole-4-sulfonamide], the AC50 was less than 100 nM at PKR R510Q, 101 to 1000 nM at PKR WT [1], less than 100 nM at PKR WT [2] and less than 100 nM on PKR R532W.

Consider `Nc1nc2c(S(=O)(=O)Nc3ccc(C(=O)N4CCC(O)(c5cccc(F)c5F)CC4)cc3)cccc2s1` [Compound 422], for which the AC50 at PKR R510Q, on PKR WT [1], on PKR WT [2] and at PKR R532W was less than 100 nM each time.

On to `CC(CC1(O)CCN(C(=O)c2ccc(NS(=O)(=O)c3cccc4c(O)ncnc34)cc2)CC1)C(F)(F)F` (centres unmarked) [Compound 431], for which the AC50 on PKR R510Q was less than 100 nM; at PKR WT [1], 101 to 1000 nM; at PKR WT [2] it was less than 100 nM; at PKR R532W, less than 100 nM.

In the case of `CC(C)CC1(C=O)CCN(C(=O)c2ccc(NS(=O)(=O)c3cccc4cccnc34)cc2)CC1` [Compound 137, N-(4-(4-formyl-4-isobutylpiperidine-1-carbonyl)phenyl)quinoline-8-sulfonamide], the AC50 at PKR R510Q, at PKR WT [1], on PKR WT [2] and at PKR R532W was less than 100 nM in each case.

As for `Nc1nc2c(S(=O)(=O)Nc3ccc(C(=O)N4CCC(O)(/C=C/CC(F)(F)F)CC4)cc3)cccc2s1` [Compound 425], the AC50 at PKR R510Q was less than 100 nM; at PKR WT [1], less than 100 nM; at PKR WT [2], less than 100 nM; at PKR R532W, 101 to 1000 nM.

For the compound `O=C(c1ccc(NS(=O)(=O)c2cccc3cccnc23)c(Cl)c1)N1CCC(O)(c2ccccc2Cl)CC1` [Compound 222, N-(2-chloro-4-(4-(2-chlorophenyl)-4-hydroxypiperidine-1-carbonyl)phenyl)quinoline-8-sulfonamide], the AC50 on PKR R510Q is 101 to 1000 nM; at PKR WT [1], less than 100 nM; at PKR WT [2] it was less than 100 nM; on PKR R532W it was less than 100 nM.

As to `CC(C)CCC1(O)CCN(C(=O)c2ccc(NS(=O)(=O)c3cccc4scnc34)cc2)CC1` [Compound 392, N-(4-(4-hydroxy-4-isopentylpiperidine-1-carbonyl)phenyl)benzo[d]thiazole-4-sulfonamide], the AC50 on PKR R510Q, on PKR WT [1], at PKR WT [2] and at PKR R532W was less than 100 nM each time.

For `O=C(c1ccc(NS(=O)(=O)c2cccc3cccnc23)cc1)N1CCC(O)(c2ncccc2Cl)CC1` [Compound 191, N-(4-(4-(3-chloropyridin-2-yl)-4-hydroxypiperidine-1-carbonyl)phenyl)quinoline-8-sulfonamide], the AC50 at PKR R510Q is 101 to 1000 nM; at PKR WT [1] it was less than 100 nM; on PKR WT [2] it was less than 100 nM; on PKR R532W, less than 100 nM.

In the case of `O=C(c1ccc(NS(=O)(=O)c2cccc3cccnc23)cc1)N1CCC(O)(c2cccc(F)c2Cl)CC1` [Compound 123, N-[4-[4-(2-chloro-3-fluoro-phenyl)-4-hydroxy-piperidine-1-carbonyl]phenyl]quinoline-8-sulfonamide], the AC50 at PKR R510Q, at PKR WT [1], on PKR WT [2] and at PKR R532W was less than 100 nM throughout.

With `O=C(c1ccc(NS(=O)(=O)c2cccc3c(O)ncnc23)cc1)N1CCC(O)(CCC(F)(F)F)CC1` [Compound 426], the AC50 on PKR R510Q, at PKR WT [1], on PKR WT [2] and at PKR R532W was 101 to 1000 nM throughout.

For `O=C(c1ccc(NS(=O)(=O)c2cccc3cccnc23)cc1)N1CCC(O)(Cc2cccc(C(F)(F)F)c2)CC1` [Compound 152, N-(4-(4-hydroxy-4-(3-(trifluoromethyl)benzyl)piperidine-1-carbonyl)phenyl)quinoline-8-sulfonamide], the AC50 is 101 to 1000 nM at PKR R510Q, 101 to 1000 nM at PKR WT [1], less than 100 nM on PKR WT [2] and less than 100 nM at PKR R532W.

With `O=C(c1ccc(NS(=O)(=O)c2cc(F)cc3cccnc23)cc1)N1CCC(O)(c2ccccc2)CC1` [Compound 196, 6-fluoro-N-(4-(4-hydroxy-4-phenylpiperidine-1-carbonyl)phenyl)quinoline-8-sulfonamide], the AC50 on PKR R510Q is 101 to 1000 nM; at PKR WT [1], 101 to 1000 nM; at PKR WT [2], less than 100 nM; on PKR R532W it was less than 100 nM.

For the compound `Nc1nc2c(S(=O)(=O)Nc3ccc(C(=O)N4CCC(O)(CCCC(F)(F)F)CC4)cc3)cccc2s1` [Compound 420], the half-maximal activity concentration (AC50) on PKR R510Q, at PKR WT [1], at PKR WT [2] and at PKR R532W was less than 100 nM throughout.

Turning to `O=C(c1ccc(NS(=O)(=O)c2cccc3nccnc23)cc1)N1CCC(O)(CCCC(F)(F)F)CC1` [Compound 397, N-(4-(4-hydroxy-4-(4,4,4-trifluorobutyl)piperidine-1-carbonyl)phenyl)quinoxaline-5-sulfonamide], the AC50 at PKR R510Q, on PKR WT [1], at PKR WT [2] and at PKR R532W was less than 100 nM throughout.

Turning to `Cn1cc(C2(O)CCN(C(=O)c3ccc(NS(=O)(=O)c4cccc5scnc45)cc3)CC2)cn1` [Compound 411, N-[4-[4-hydroxy-4-(1-methylpyrazol-4-yl)piperidine-1-carbonyl]phenyl]benzothiazole-4-sulfonamide], the AC50 at PKR R510Q is 101 to 1000 nM; on PKR WT [1], less than 100 nM; on PKR WT [2] it was 101 to 1000 nM; at PKR R532W, less than 100 nM.
